According to patent publication US10927110B2, “Cyano-subtituted heterocycles with activity as inhibitors of USP30” (MISSION THERAPEUTICS LIMITED, priority 2016, dated 2021):

Target: USP30 (Homo sapiens (Human), UniProt Q70CQ3)
Assay: USP30 Biochemical IC50 Assay
Conditions: fluorescence polarisation, TAMRA labelled peptide linked to ubiquitin; 30 min pre-incubation, read after 2 h at room temperature; read-out: IC50 range
Experimental: USP30 Biochemical IC50 Assay
Dilution plates were prepared at 21 times the final concentration (2100 μM for a final concentration of 100 μM) in 50% DMSO in a 96-well polypropylene V-bottom plate (Greiner #651201). A typical 8-point dilution series would be 100, 30, 10, 3, 1, 0.3, 0.1, […]. Reactions were performed in duplicate in black 384 well plates (small volume, Greiner 784076) in a final reaction volume of 21 μl. Either 1 μl of 50% DMSO or diluted compound was added to the plate. USP30 was diluted in reaction buffer (40 mM Tris, pH 7.5, 0.005% Tween 20, 0.5 mg/ml BSA, 5 mM beta-mercaptoethanol) to the equivalent of 0.05 μl/well and 10 μl of diluted USP30 was added to the compound. Enzyme and compound were incubated for 30 min at room temp. Reactions were initiated by the addition of 50 nM of TAMRA labelled peptide linked to ubiquitin via an iso-peptide bond as fluorescence polarisation substrate. Reactions were read immediately after addition of substrate and following a 2 h incubation at room temperature. Readings were performed on a Pherastar Plus (BMG Labtech). λ Excitation 540 nm; λ Emission 590 nm.

Chain of USP30 (Q70CQ3 57-517): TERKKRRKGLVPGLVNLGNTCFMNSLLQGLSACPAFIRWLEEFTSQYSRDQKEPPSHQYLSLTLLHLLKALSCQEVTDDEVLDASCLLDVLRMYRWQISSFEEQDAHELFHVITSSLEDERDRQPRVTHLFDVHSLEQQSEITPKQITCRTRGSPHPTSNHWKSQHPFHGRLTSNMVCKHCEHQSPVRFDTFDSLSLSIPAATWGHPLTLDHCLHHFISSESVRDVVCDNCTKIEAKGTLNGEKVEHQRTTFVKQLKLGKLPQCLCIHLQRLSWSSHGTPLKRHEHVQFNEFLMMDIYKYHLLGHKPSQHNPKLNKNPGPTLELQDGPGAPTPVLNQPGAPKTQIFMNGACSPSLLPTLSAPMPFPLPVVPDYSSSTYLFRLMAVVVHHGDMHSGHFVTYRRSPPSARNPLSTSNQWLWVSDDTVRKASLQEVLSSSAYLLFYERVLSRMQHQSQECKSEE

SMILES	IC50 [µM]
N#CN1CCCC(F)(c2nc3ccc(-c4ccn[nH]4)nc3[nH]2)C1 (racemic) [Example 17, 3-(5-(1H-pyrazol-5-yl)-3H-imidazo[4,5-b]pyridin-2-yl)-3-fluoropiperidine-1-carbonitrile]	1 to 10
N#CN1CCOC(c2nc(-c3cccc(-c4ccccc4)c3)n[nH]2)C1 (centres unmarked) [Example 6, 2-(3-([1,1′-Biphenyl]-3-yl)-H-1,2,4-triazol-5-yl)morpholine-4-carbonitrile]	1 to 10
N#Cc1cc(-c2nnc([C@@]3(F)CCCN(C#N)C3)o2)ccn1 [Example 12, (R)-4-(5-(1-cyano-3-fluoropiperidin-3-yl)-1,3,4-oxadiazol-2-yl)picolinonitrile]	1 to 10
N#Cc1cc(-c2ccnc(-c3nnc([C@@]4(F)CCCN(C#N)C4)o3)c2)ccn1 [Example 13, (R)-2′-(5-(1-cyano-3-fluoropiperidin-3-yl)-1,3,4-oxadiazol-2-yl)-[4,4′-bipyridine]-2-carbonitrile]	1 to 10
N#CN1CCCC(F)(c2nc3ccc(-c4ccn[nH]4)cc3[nH]2)C1 (centres unmarked) [Example 14, 3-(6-(H-pyrazol-5-yl)-1H-benzo[d]imidazol-2-yl)-3-fluoropiperidine-1-carbonitrile]	1 to 10
N#Cc1cccc(-c2ccc3nc([C@@]4(F)CCCN(C#N)C4)[nH]c3n2)n1 [Example 21, (R)-6-(2-(1-cyano-3-fluoropiperidin-3-yl)-3H-imidazo[4,5-b]pyridin-5-yl)picolinonitrile]	1 to 10
N#Cc1cc(-c2ccc3oc([C@@]4(F)CCCN(C#N)C4)nc3c2)ncn1 [Example 23, (R)-6-(2-(1-cyano-3-fluoropiperidin-3-yl)benzo[d]oxazol-5-yl)pyrimidine-4-carbonitrile]	0.1 to 1
N#Cc1ccnc(-c2ccc3oc([C@@]4(F)CCCN(C#N)C4)nc3c2)n1 [Example 24, (R)-2-(2-(1-cyano-3-fluoropiperidin-3-yl)benzo[d]oxazol-5-yl)pyrimidine-4-carbonitrile]	0.1 to 1
N#Cc1ccnc(-c2ccc3oc([C@@]4(F)CCCN(C#N)C4)nc3c2)c1 [Example 26, (R)-2-(2-(1-cyano-3-fluoropiperidin-3-yl)benzo[d]oxazol-5-yl)isonicotinonitrile]	0.1 to 1
N#Cc1cc(-c2ccc3nc([C@@]4(F)CCCN(C#N)C4)oc3c2)ccn1 [Example 27, (R)-4-(2-(1-cyano-3-fluoropiperidin-3-yl)benzo[d]oxazol-6-yl)picolinonitrile]	0.1 to 1
N#Cc1cccc(-c2cnc3nc(C4(F)CCCN(C#N)C4)oc3c2)c1 (centres unmarked) [Example 29, 3-(6-(3-cyanophenyl)oxazolo[4,5-b]pyridin-2-yl)-3-fluoropiperidine-1-carbonitrile]	0.1 to 1
N#Cc1cc(-c2cnc3oc([C@@]4(F)CCCN(C#N)C4)nc3c2)ccn1 [Example 30, (R)-4-(2-(1-cyano-3-fluoropiperidin-3-yl)oxazolo[5,4-b]pyridin-6-yl)picolinonitrile]	0.1 to 1
N#Cc1cc(-c2ccn3cc([C@@]4(F)CCCN(C#N)C4)nc3c2)ccn1 [Example 31, (R)-4-(2-(1-cyano-3-fluoropiperidin-3-yl)imidazo[1,2-a]pyridin-7-yl)picolinonitrile]	0.1 to 1

Now from value to molecule:

IC50 [µM]	SMILES
0.01 to 0.1	N#Cc1cccc(-c2ccc3nc(C4(F)CCCN(C#N)C4)[nH]c3n2)c1 (stereo in doubt) [Example 16, (S)-3-(5-(3-cyanophenyl)-3H-imidazo[4,5-b]pyridin-2-yl)-3-fluoropiperidine-1-carbonitrile]
0.1 to 1	N#Cc1cccc(-c2cnc3oc([C@@]4(F)CCCN(C#N)C4)nc3c2)c1 (stereo in doubt) [Example 28, 3-(6-(3-cyanophenyl)oxazolo[5,4-b]pyridin-2-yl)-3-fluoropiperidine-1-carbonitrile]
0.01 to 0.1	N#CN1CCC[C@](F)(c2nnc(-c3cccc(-c4ccccc4)c3)o2)C1 [Example 9, (R)-3-(5-([1,1′-biphenyl]-3-yl)-1,3,4-oxadiazol-2-yl)-3-fluoropiperidine-1-carbonitrile]
0.1 to 1	N#CN1CCCC(F)(c2nnc(-c3ccc(-c4ccccc4)cc3)o2)C1 (centres unmarked) [Example 10, 3-(5-([1,1′-biphenyl]-4-yl)-1,3,4-oxadiazol-2-yl)-3-fluoropiperidine-1-carbonitrile]
0.1 to 1	N#Cc1cc(-c2cc(-c3nnc([C@@]4(F)CCCN(C#N)C4)o3)ccn2)ccn1 [Example 11, (R)-4-(5-(1-cyano-3-fluoropiperidin-3-yl)-1,3,4-oxadiazol-2-yl)-[2,4′-bipyridine]-2′-carbonitrile]
0.1 to 1	N#CN1CCC[C@](F)(c2nc3ccc(-c4ccccc4)nc3[nH]2)C1 [Example 15, (R)-3-fluoro-3-(5-phenyl-3H-imidazo[4,5-b]pyridin-2-yl)piperidine-1-carbonitrile]
0.1 to 1	N#Cc1cc(-c2cnc3nc([C@@]4(F)CCCN(C#N)C4)[nH]c3c2)ccn1 [Example 18, (R)-4-(2-(1-cyano-3-fluoropiperidin-3-yl)-3H-imidazo[4,5-b]pyridin-6-yl)picolinonitrile]
0.1 to 1	N#Cc1cc(-c2ccc3nc([C@@]4(F)CCCN(C#N)C4)[nH]c3n2)ccn1 [Example 19, (R)-4-(2-(1-cyano-3-fluoropiperidin-3-yl)-1H-imidazo[4,5-b]pyridin-5-yl)picolinonitrile]
0.01 to 0.1	N#Cc1cccc(-c2ccc3oc([C@@]4(F)CCCN(C#N)C4)nc3c2)c1 [Example 22, (R)-3-(5-(3-cyanophenyl)benzo[d]oxazol-2-yl)-3-fluoropiperidine-1-carbonitrile]
0.01 to 0.1	N#Cc1cc(-c2ccc3oc([C@@]4(F)CCCN(C#N)C4)nc3c2)ccn1 [Example 25, (R)-4-(2-(1-cyano-3-fluoropiperidin-3-yl)benzo[d]oxazol-5-yl)picolinonitrile]
